Source: ChEMBL document CHEMBL1141668, “Synthesis and biological activity of imidazopyridine anticoccidial agents: Part II” (Eur J Med Chem, 2008)
pIC50: −log10 of the molar value.

Experiments:
Eimeria maxima [1] = experiment: Anticoccidial activity against Eimeria maxima in chickens assessed as reduction of oocysts at 1 ppm measured after 8 days by ExMAC assay relative to untreated control; assay type: functional; parameters: scale not given: the % may be the effect or the level left
[2] = target: cGMP-dependent protein kinase (Eimeria tenella, UniProt Q8MMZ8); experiment: Inhibition of Eimeria tenella cGMP-dependent protein kinase
cGMP-dependent protein kinase, sequence (Q8MMZ8 whole entry): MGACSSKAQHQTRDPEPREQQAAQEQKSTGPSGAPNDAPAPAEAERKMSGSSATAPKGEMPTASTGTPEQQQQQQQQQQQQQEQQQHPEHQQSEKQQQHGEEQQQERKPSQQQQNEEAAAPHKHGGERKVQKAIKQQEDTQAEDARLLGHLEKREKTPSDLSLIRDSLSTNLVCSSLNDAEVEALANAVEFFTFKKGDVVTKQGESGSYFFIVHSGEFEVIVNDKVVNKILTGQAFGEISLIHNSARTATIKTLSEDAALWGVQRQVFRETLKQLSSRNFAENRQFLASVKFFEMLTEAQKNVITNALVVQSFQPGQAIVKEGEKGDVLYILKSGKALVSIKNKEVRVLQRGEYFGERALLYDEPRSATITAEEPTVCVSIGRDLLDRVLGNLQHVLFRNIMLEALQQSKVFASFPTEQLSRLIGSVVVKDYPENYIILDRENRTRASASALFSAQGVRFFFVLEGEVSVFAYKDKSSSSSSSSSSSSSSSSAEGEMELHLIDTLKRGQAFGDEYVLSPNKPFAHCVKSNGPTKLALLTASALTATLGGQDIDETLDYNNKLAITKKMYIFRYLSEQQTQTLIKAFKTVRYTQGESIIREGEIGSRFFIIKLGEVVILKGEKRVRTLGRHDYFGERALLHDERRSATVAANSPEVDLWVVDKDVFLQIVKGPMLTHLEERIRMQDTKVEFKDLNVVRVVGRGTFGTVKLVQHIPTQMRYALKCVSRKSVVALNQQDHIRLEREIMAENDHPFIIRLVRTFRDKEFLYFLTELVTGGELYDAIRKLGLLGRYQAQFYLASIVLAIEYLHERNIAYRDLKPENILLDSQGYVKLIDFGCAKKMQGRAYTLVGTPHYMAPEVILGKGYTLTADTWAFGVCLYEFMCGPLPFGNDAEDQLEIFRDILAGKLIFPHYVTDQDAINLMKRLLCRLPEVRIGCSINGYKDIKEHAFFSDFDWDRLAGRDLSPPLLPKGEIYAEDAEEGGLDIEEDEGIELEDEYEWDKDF

Eimeria tenella [3] = experiment: Anticoccidial activity against Eimeria tenella in chickens assessed as reduction of oocysts at 4 ppm measured after 8 days by ExMAC assay relative to untreated control; assay type: functional; parameters: scale not given: the % may be the effect or the level left
Eimeria tenella [4] = experiment: Anticoccidial activity against Eimeria tenella in chickens assessed as reduction of oocysts at 2 ppm measured after 8 days by ExMAC assay relative to untreated control; assay type: functional; parameters: scale not given: the % may be the effect or the level left
Eimeria tenella [5] = experiment: Anticoccidial activity against Eimeria tenella in chickens assessed as reduction of oocysts at 1 ppm measured after 8 days by ExMAC assay relative to untreated control; assay type: functional; parameters: scale not given: the % may be the effect or the level left
Eimeria acervulina [6] = experiment: Anticoccidial activity against Eimeria acervulina in chickens assessed as reduction of oocysts at 4 ppm measured after 8 days by ExMAC assay relative to untreated control; assay type: functional; parameters: scale not given: the % may be the effect or the level left
Eimeria acervulina [7] = experiment: Anticoccidial activity against Eimeria acervulina in chickens assessed as reduction of oocysts at 2 ppm measured after 8 days by ExMAC assay relative to untreated control; assay type: functional; parameters: scale not given: the % may be the effect or the level left
Eimeria acervulina [8] = experiment: Anticoccidial activity against Eimeria acervulina in chickens assessed as reduction of oocysts at 1 ppm measured after 8 days by ExMAC assay relative to untreated control; assay type: functional; parameters: scale not given: the % may be the effect or the level left
Eimeria mitis [9] = experiment: Anticoccidial activity against Eimeria mitis in chickens assessed as reduction of oocysts at 4 ppm measured after 8 days by ExMAC assay relative to untreated control; assay type: functional; parameters: scale not given: the % may be the effect or the level left
Eimeria mitis [10] = experiment: Anticoccidial activity against Eimeria mitis in chickens assessed as reduction of oocysts at 2 ppm measured after 8 days by ExMAC assay relative to untreated control; assay type: functional; parameters: scale not given: the % may be the effect or the level left
Eimeria mitis [11] = experiment: Anticoccidial activity against Eimeria mitis in chickens assessed as reduction of oocysts at 1 ppm measured after 8 days by ExMAC assay relative to untreated control; assay type: functional; parameters: scale not given: the % may be the effect or the level left
Eimeria maxima [12] = experiment: Anticoccidial activity against Eimeria maxima in chickens assessed as reduction of oocysts at 4 ppm measured after 8 days by ExMAC assay relative to untreated control; assay type: functional; parameters: scale not given: the % may be the effect or the level left
Eimeria maxima [13] = experiment: Anticoccidial activity against Eimeria maxima in chickens assessed as reduction of oocysts at 2 ppm measured after 8 days by ExMAC assay relative to untreated control; assay type: functional; parameters: scale not given: the % may be the effect or the level left
Eimeria tenella [14] = experiment: Anticoccidial activity against Eimeria tenella in chickens assessed as reduction of oocysts at 25 ppm measured after 8 days by ExMAC assay relative to untreated control; assay type: functional; parameters: scale not given: the % may be the effect or the level left
Eimeria tenella [15] = experiment: Anticoccidial activity against Eimeria tenella in chickens assessed as reduction of oocysts at 6.25 ppm measured after 8 days by ExMAC assay relative to untreated control; assay type: functional; parameters: scale not given: the % may be the effect or the level left
Eimeria tenella [16] = experiment: Anticoccidial activity against Eimeria tenella in chickens assessed as reduction of oocysts at 12.5 ppm measured after 8 days by ExMAC assay relative to untreated control; assay type: functional; parameters: scale not given: the % may be the effect or the level left
Eimeria acervulina [17] = experiment: Anticoccidial activity against Eimeria acervulina in chickens assessed as reduction of oocysts at 25 ppm measured after 8 days by ExMAC assay relative to untreated control; assay type: functional; parameters: scale not given: the % may be the effect or the level left
Eimeria acervulina [18] = experiment: Anticoccidial activity against Eimeria acervulina in chickens assessed as reduction of oocysts at 6.25 ppm measured after 8 days by ExMAC assay relative to untreated control; assay type: functional; parameters: scale not given: the % may be the effect or the level left
Eimeria acervulina [19] = experiment: Anticoccidial activity against Eimeria acervulina in chickens assessed as reduction of oocysts at 12.5 ppm measured after 8 days by ExMAC assay relative to untreated control; assay type: functional; parameters: scale not given: the % may be the effect or the level left
Eimeria mitis [20] = experiment: Anticoccidial activity against Eimeria mitis in chickens assessed as reduction of oocysts at 25 ppm measured after 8 days by ExMAC assay relative to untreated control; assay type: functional; parameters: scale not given: the % may be the effect or the level left
Eimeria mitis [21] = experiment: Anticoccidial activity against Eimeria mitis in chickens assessed as reduction of oocysts at 6.25 ppm measured after 8 days by ExMAC assay relative to untreated control; assay type: functional; parameters: scale not given: the % may be the effect or the level left
Eimeria mitis [22] = experiment: Anticoccidial activity against Eimeria mitis in chickens assessed as reduction of oocysts at 12.5 ppm measured after 8 days by ExMAC assay relative to untreated control; assay type: functional; parameters: scale not given: the % may be the effect or the level left
Eimeria maxima [23] = experiment: Anticoccidial activity against Eimeria maxima in chickens assessed as reduction of oocysts at 25 ppm measured after 8 days by ExMAC assay relative to untreated control; assay type: functional; parameters: scale not given: the % may be the effect or the level left
Eimeria maxima [24] = experiment: Anticoccidial activity against Eimeria maxima in chickens assessed as reduction of oocysts at 6.25 ppm measured after 8 days by ExMAC assay relative to untreated control; assay type: functional; parameters: scale not given: the % may be the effect or the level left
Eimeria maxima [25] = experiment: Anticoccidial activity against Eimeria maxima in chickens assessed as reduction of oocysts at 12.5 ppm measured after 8 days by ExMAC assay relative to untreated control; assay type: functional; parameters: scale not given: the % may be the effect or the level left

SMILES	pIC50 [2]	Activity (Eimeria maxima [1]) [%]	Activity (Eimeria tenella [4]) [%]	Activity (Eimeria acervulina [7]) [%]	Activity (Eimeria acervulina [8]) [%]	Activity (Eimeria mitis [9]) [%]	Activity (Eimeria mitis [10]) [%]	Activity (Eimeria mitis [11]) [%]	Activity (Eimeria tenella [14]) [%]	Activity (Eimeria tenella [15]) [%]	Activity (Eimeria tenella [16]) [%]	Activity (Eimeria acervulina [17]) [%]	Activity (Eimeria acervulina [18]) [%]	Activity (Eimeria acervulina [19]) [%]	Activity (Eimeria mitis [20]) [%]	Activity (Eimeria mitis [21]) [%]	Activity (Eimeria mitis [22]) [%]	Activity (Eimeria maxima [23]) [%]	Activity (Eimeria maxima [24]) [%]	Activity (Eimeria maxima [25]) [%]	also measured
CN(C)CCCc1ccn2c(-c3ccnc(N)n3)c(-c3ccc(F)cc3)nc2c1	9.57	–	–	–	–	–	–	–	80	<50	80	80	<50	80	80	<50	<50	100	<50	<50	–
CN(C)CCc1ccn2c(-c3ccnc(N)n3)c(-c3ccc(F)cc3)nc2c1	9.34	–	–	–	–	–	–	–	100	100	100	100	80	100	100	<50	80	100	50	100	–
Nc1nccc(-c2c(-c3ccc(F)cc3)nc3cc(C4CCN(CCO)CC4)ccn23)n1	10.36	–	–	–	–	–	–	–	99	99	99	99	<50	50	<50	<50	80	50	<50	80	–

Continued, in another order:

pIC50 [2]	SMILES	Activity (Eimeria maxima [1]) [%]	Activity (Eimeria tenella [4]) [%]	Activity (Eimeria acervulina [7]) [%]	Activity (Eimeria acervulina [8]) [%]	Activity (Eimeria mitis [9]) [%]	Activity (Eimeria mitis [10]) [%]	Activity (Eimeria mitis [11]) [%]	Activity (Eimeria tenella [14]) [%]	Activity (Eimeria tenella [15]) [%]	Activity (Eimeria tenella [16]) [%]	Activity (Eimeria acervulina [17]) [%]	Activity (Eimeria acervulina [18]) [%]	Activity (Eimeria acervulina [19]) [%]	Activity (Eimeria mitis [20]) [%]	Activity (Eimeria mitis [21]) [%]	Activity (Eimeria mitis [22]) [%]	Activity (Eimeria maxima [23]) [%]	Activity (Eimeria maxima [24]) [%]	Activity (Eimeria maxima [25]) [%]	also measured
10.17	CC(c1ccn2c(-c3ccnc(N)n3)c(-c3ccc(F)cc3)nc2c1)N(C)C (single isomer, unassigned; enantiomer B)	100	80	100	80	80	80	<50	–	–	–	–	–	–	–	–	–	–	–	–	Activity (Eimeria tenella [3]): 80%; Activity (Eimeria tenella [5]): 50%; Activity (Eimeria acervulina [6]): 80%; Activity (Eimeria maxima [12]): 100%; Activity (Eimeria maxima [13]): 80%
10.19	CCCC(c1ccn2c(-c3ccnc(N)n3)c(-c3ccc(F)cc3)nc2c1)N(C)C (stereo not given)	–	–	–	–	–	–	–	100	<50	<50	100	80	80	100	<50	<50	100	100	<50	–
9.55	CC(c1ccn2c(-c3ccnc(N)n3)c(-c3ccc(F)cc3)nc2c1)N(C)C (single isomer, unassigned; enantiomer A)	50	<50	<50	<50	<50	<50	50	–	–	–	–	–	–	–	–	–	–	–	–	Activity (Eimeria maxima [12]): <50%; Activity (Eimeria maxima [13]): 50%
